Test results published in patent US10143697B2, “Pharmaceutic composition comprising of HDAC inhibitor and a steroid and the use thereof” (VALCURIA AB, priority 2011, dated 2018).
Where two headings read alike, the source gives them in different places.

How the values were obtained:
[1] = system: WSU-NHL cells; assay: pretreatment with VPA and prednisolone before CHOP, viability by trypan blue exclusion; format: cell-based; conditions: pretreatment with VPA alone before CHOP
Text: Pretreatment with VPA before CHOP could theoretically increase the response to CHOP therapy through induction of DNA damage. However, VPA treatment could result in symptoms such as somnolence in a patient. These symptoms could be counteracted by simultaneous treatment with prednisolone. […] All tests were two-sided.

[2] = system: WSU-NHL cells; assay: Rituximab antibody-dependent cellular cytotoxicity (ADCC) with NK cells, dead target cells PKH26/7-AAD double positive; format: cell-based
Procedure: (§1) To estimate the impact of VPA on the antibody-dependent-cellular cytotoxicity (ADCC) induced by the CD20 antibody Rituximab. […]
(§2) NK cells were added as an effector to target cell ratio of 10:1, thereafter the cells were incubated for an additional 20 hours. Dead target cells were identified as double positive for PKH26 and 7-AAD and used as readout of the assay.

[3] = system: SU-DHL-8 cells; assay: as above; format: cell-based
Procedure: as §1, §2

[4] = system: WSU-NHL cells; assay: cell viability by trypan blue exclusion after 72 hours, VPA alone or in combination with CHOP; format: cell-based; conditions: Homo sapiens; for viability at 100 µM: 0.1 mM VPA; for viability at 2000 µM: 2 mM VPA; for viability at 10000 µM: 10 mM VPA
Procedure: (§3) The DLBCL cell lines WSU-NHL, Karpas-422, ULA, SU-DHL-5 and SU-DHL-8 cells were treated for 72 hours with three different concentrations (0.1 mM, 2 mM and 10 mM respectively) of valproic acid (VPA) alone, or in combination with CHOP. The CHOP regimen used in all examples consists of 10 μM cyclophosphamide monohydrate, 20 nM doxorubicin hydrochloride, 2 nM vincristine sulfate and 20 μg/ml prednisolone. (Ageberg, Rydström, Lindén, Linderoth, Jerkeman and Drott; Exp Cell Research; May 1; 317(8):1179-91).
(§4) The cell viability was assessed after 72 hours by trypan blue exclusion and normalised to untreated control cells at day 0 (seeding). Data are presented as mean±SEM, n=3.

[5] = system: Karpas-422 cells; assay: as above; format: cell-based; conditions: Homo sapiens, KARPAS-422, 72 h; for viability at 100 µM: 0.1 mM VPA; for viability at 2000 µM: 2 mM VPA; for viability at 10000 µM: 10 mM VPA
Procedure: as §3, §4

[6] = system: SU-DHL-8 cells; assay: as above; format: cell-based; conditions: Homo sapiens, SU-DHL-8, 72 h; for viability at 100 µM: 0.1 mM VPA; for viability at 2000 µM: 2 mM VPA; for viability at 10000 µM: 10 mM VPA
Procedure: as §3, §4

[7] = system: SU-DHL-5 cells; assay: as above; format: cell-based; conditions: Homo sapiens, SU-DHL-5, 72 h; for viability at 100 µM: 0.1 mM VPA; for viability at 2000 µM: 2 mM VPA; for viability at 10000 µM: 10 mM VPA
Procedure: as §3, §4

[8] = system: ULA cells; assay: as above; format: cell-based; conditions: for viability at 100 µM: 0.1 mM VPA; for viability at 2000 µM: 2 mM VPA; for viability at 10000 µM: 10 mM VPA
Procedure: as §3, §4

[9] = VPA serum concentration in patients; format: in vivo, human; conditions: 5 day VPA treatment for compassionate use as noted by the inventor
Procedure: (§5) The DLBCL cell lines SU-DHL-8 (Table 2A) and WSU-NHL (Table 2B) were treated for 72 hours with 0.5 mM or 1.5 mM VPA alone, or in combination with CHOP. The concentration of 0.5 mM VPA was chosen because it is a normal serum concentration during continuous VPA treatment in patients with epilepsy. The concentration of 1.5 mM VPA was chosen because it is the maximal tolerated serum concentration during 5 day VPA treatment for compassionate use as noted by the inventor.

[10] = continuous VPA treatment in patients with epilepsy; cited from earlier work
[11] = system: histone H3; assay: acetylation of histone H3 by western blot analysis in DLBCL cell line model; format: cell-based; conditions: valproic acid at pharmacological concentrations
[12] = system: WSU-NHL; assay: cell viability time course by trypan blue exclusion, 0.5 mM or 1.5 mM VPA alone or with CHOP; format: cell-based; conditions: Homo sapiens, read-out: Viability (% of control cells day 1); for viability at 500 µM: 0.5 mM VPA; for viability at 1500 µM: 1.5 mM VPA
Procedure: as §5
(§6) The cell viability was assessed after 0 (Day 1), 24 (Day 2), 48 (Day 3) and 72 (Day 4) hours respectively, by trypan blue exclusion and normalised to untreated control cells. Data are presented as mean, n=3.
(§7) Treatment effects on viability were tested against the effects of CHOP treatment alone. […] All tests were two-sided. Effects were considered statistically significant at P<0.05 (*) and P<0.01 (**).
(§8) Viability (% of control cells day 1) are shown in Table 2A (SU-DHL-8) and Table 2B (WSU-NHL, n=3) respectively.

[13] = system: SU-DHL-8; assay: as above; format: cell-based; conditions: Homo sapiens, read-out: Viability (% of control cells day 1); for viability at 500 µM: SU-DHL-8, 0.5 mM VPA; for viability at 1500 µM: SU-DHL-8, 1.5 mM VPA
Procedure: as §5, §6, §7, §8

[14] = 1.5 mM VPA for 24 hours before rituximab
[15] = Rituximab 0 μg/ml, +NK Cells + 1.5 mM VPA

CCCC(CCC)C(=O)O [VPA, valproic acid]
sensitization to CHOP-treatment [1]: sensitizes lymphoma cell lines to CHOP-treatment
effect on Rituximab induced ADCC [2, 14]: does not affect Rituximab induced ADCC
percentage of dead cells, Mean [2, 15]: 27%
effect on Rituximab induced ADCC [3, 14]: does not affect Rituximab induced ADCC
percentage of dead cells, Mean [3, 15]: 34%
viability at 100 µM ([4]; +CHOP): 63%
viability at 100 µM ([4]; −CHOP): 99%
viability at 2000 µM ([4]; +CHOP): 6%
viability at 2000 µM ([4]; −CHOP): 29%
viability at 10000 µM ([4]; +CHOP): 0%
viability at 10000 µM ([4]; −CHOP): 1%
viability at 100 µM ([5]; +CHOP): 80%
viability at 100 µM ([5]; −CHOP): 100%
viability at 2000 µM ([5]; +CHOP): 67%
viability at 2000 µM ([5]; −CHOP): 102%
viability at 10000 µM ([5]; +CHOP): 21%
viability at 10000 µM ([5]; −CHOP): 21%
viability at 100 µM ([6]; +CHOP): 55%
viability at 100 µM ([6]; −CHOP): 105%
viability at 2000 µM ([6]; +CHOP): 0%
viability at 2000 µM ([6]; −CHOP): 67%
viability at 10000 µM ([6]; +CHOP): 0%
viability at 10000 µM ([6]; −CHOP): 0%
viability at 100 µM ([7]; +CHOP): 26%
viability at 100 µM ([7]; −CHOP): 124%
viability at 2000 µM ([7]; +CHOP): 1%
viability at 2000 µM ([7]; −CHOP): 53%
viability at 10000 µM ([7]; +CHOP): 0%
viability at 10000 µM ([7]; −CHOP): 0%
viability at 100 µM ([8]; +CHOP): 73%
viability at 100 µM ([8]; −CHOP): 105%
viability at 2000 µM ([8]; +CHOP): 52%
viability at 2000 µM ([8]; −CHOP): 52%
viability at 10000 µM ([8]; +CHOP): 42%
viability at 10000 µM ([8]; −CHOP): 50%
maximal tolerated serum concentration [9]: 1.5 mM
normal serum concentration [10]: 0.5 mM
acetylation of histone H3 [11]: increase in acetylation of histone H3
viability at 500 µM ([12]; Day 1 (0 hours)): 100%
viability at 500 µM ([12]; Day 2 (24 hours)): 97%
viability at 500 µM ([12]; Day 3 (48 hours)): 99%
viability at 500 µM ([12]; Day 4 (72 hours)): 98%
viability at 1500 µM ([12]; Day 1 (0 hours)): 100%
viability at 1500 µM ([12]; Day 2 (24 hours)): 95%
viability at 1500 µM ([12]; Day 3 (48 hours)): 68%
viability at 1500 µM ([12]; Day 4 (72 hours)): 36%
viability at 500 µM ([13]; Day 1 (0 hours)): 100%
viability at 500 µM ([13]; Day 2 (24 hours)): 102%
viability at 500 µM ([13]; Day 3 (48 hours)): 101%
viability at 500 µM ([13]; Day 4 (72 hours)): 94%
viability at 1500 µM ([13]; Day 1 (0 hours)): 100%
viability at 1500 µM ([13]; Day 2 (24 hours)): 97%
viability at 1500 µM ([13]; Day 3 (48 hours)): 64%
viability at 1500 µM ([13]; Day 4 (72 hours)): 59%
